# Assay results: patent US9220714B2, “Nitrofuran compounds for the treatment of cancer and angiogenesis” (WOMEN AND INFANTS HOSPITAL OF RHODE ISLAND, priority 2006, dated 2015)
# Like-named read-outs stand apart in the source and are kept apart here.
# How the values were obtained:
# [1] = tested on: rat aortic rings; details: with growth factors, day 9
# Source text: (A) Vehicle treated aorta without growth factor (B) Vehicle treated aorta with growth factor.
# Matrigel bed mimics physiological extracellular matrix representing its natural composition and architecture. Due to these features, Matrigel enables several cell types, including endo-thelial cells, to maintain in culture their in vivo phenotype and 3-dimensional organization. Aortic arches were removed from euthanized rats and immediately transferred to a culture dish containing ice-cold serum-free media. The peri-aortic fibroadipose tissue was carefully removed with fine microdissection forceps and iridectomy scissors paying special attention not to damage the aortic wall. Aortic rings (1 mm thick) were sectioned and extensively rinsed in 5 consecutive washes of Medium 200. […] The explants were examined every second day with a Nikon Eclipse TS100 inverted microscope at an appropriate magnification and photographed at the end of 9th day. On the ninth day, the capillary sprouting were quantified by grading and recording the extent of sprouting directly reflecting angiogenesis using Nikon Eclipse TS100 fluorescent microscope (Japan) and Fuji digital camera.
# [2] = tested on: SMS-KCNR cells; details: 150 mg/kg/day in food pellets, 30 days, nude mice
# [3] = tested on: HEC; assay: cells; details: Homo sapiens, 8 h, read-out: inhibition of tube formation
# Experimental: Stimulation with growth factors leads to morphological differentiation of endothelial cells and formation of tube like structures on matrices. The endothelial tube formation assay was performed in Matrigel bed. Briefly, Matrigel bed was prepared by using pre-cooled pipettes, plates and tubes on ice. Growth factor-reduced Matrigel was thawed overnight at 4° C. and mixed to homogeneity, Culture plates (48-well) were coated with 0.1 ml of Matrigel and allowed to gelatinize at 37° C. for 30 minutes. […] Capillary networks were photographed using a phase-contrast microscope (Nikon Eclipse TS 100, fitted with Fuji digital camera, Japan), and the number of tubes was quantified by counting the branching points from four quadrants of each well.
# [4] = tested on: sympathetic neurons; details: not seen in parasympathetic neurons or non-neuronal cells
# [5] = tested on: SMS-KCNR cells; assay: cells; details: Homo sapiens
# Experimental: (§1) Cell viability was assessed using the MTS assay as described in Materials and Methods and expressed as percent of vehicle treated control. The data represents the mean SSD of four replicates.
# SMS-KCNR cells were pretreated with pancaspase inhibitor, Z-VAD-FMK. […] Cell viability was measured by MTS assay. The reversal of cytotoxicity by pancaspase inhibitor was determined by comparing the viability of riifurtimox treated cells in the presence or absence of the pancaspase inhibitor. The values are the Mean±SD of quadruplicates.
# (§2) The human neuroblastoma cell lines IMR-32 (ATCC), SMS-KCN, SMS-KCNR (from John Maris, CHOP, Philadelphia, Pa.) were maintained in RPMI 1640 media supplemented with 10% fetal bovine serum, 100 units/ml penicillin and 100 μg/ml streptomycin at 37° C. in a humidified incubator. Cells were grown in 6 well plates or 100 mm dishes to 75% confluency and serum deprived (RPMI 1640 with 0.1% BSA) overnight before treatment.
# (§3) Cell viability was measured using the CellTiter 96 AQ One Solution Cell Proliferation Assay kit (Promega, Madison Wis.)^4. […] Vehicle treated cells were used as control (0.001% DMSO). At the end of the incubation period, MTS reagent (3-(4,5-dimethylthiazol-2-yl)-5-(3-carboxymethoxyphenyl)-2-(4-sulfophenyl)-2H-tetrazolium)^12 was added to each well in fresh media to a final concentration of 0.5 mg/ml and incubated for 4 hours. Absorbance was measured at 490 nm using a microplate reader (Multiskan RC, Fisher Scientific Pittsburgh, Pa.). Cell viability is represented as the mean percentage+/−SD of absorbance before and after treatment.
# Inactivation of caspases results in inhibition of caspase mediated apoptosis. […] The cell viability was measured by MTS assay.
# [6] = tested on: ERK1/2; details: SMS-KCNR, data not shown
# [7] = tested on: neuroblastoma; details: for tumor marker VMA: initial VMA 22
# Source text: Chagas disease is a parasitic disease caused by Trypanasoma cruzi endemic to South America.
# [8] = study of 67 children using nifurtimox for Chagas disease; cited from earlier work
# [9] = tested on: neuroblastoma cell lines
# [10] = tested on: normal epithelial cells; details: normal epithelial cells in culture; cited from earlier work
# [11] = tested on: SMS-KCNR cells; assay: cells; details: Homo sapiens, read-out: concentration giving 50% inhibition in DNA synthesis (BrdU incorporation)
# Experimental: (§4) Cells were labeled with 10 μM BrdU for 6 hours. The cells were fixed and the color was developed using peroxidase conjugated anti-BrdU antibody and TMB (3,3′,5,5′-tetramethylbenzidine) chromogenic substrate. Absorbance was measured at 450 nm using a microplate reader (Multiskan RC, Fisher Scientific, Pittsburgh, Pa.). In this assay, the color intensity correlates directly to the amount of BrdU incorporation which in turn reflects proliferation.
# [12] = tested on: Human Endothelial Cells (HEC); assay: cells; details: Endothelial cell, read-out: inhibition of DNA synthesis in HEC
# Experimental: as §4
# Human Endothelial Cells (HEC) (1×10^4 cells) were cultured in 96 well plates, serum deprived for 16 hours and treated with […], 1.25, 2.5, 5, 10 and 20 μg/ml in Medium 200 in the presence or absence of 50 ng/ml VEGF for 72 hours. BrdU (10 μM final concentration) was added to the cells and re-incubated for further 6 hours. The cells were fixed and the color was developed using anti-BrdU-POD antibody and TMB chromogenic substrate. The assay was performed according to the manufacturer's instructions. In this colorimetric cell proliferation assay, the color intensity correlates directly to the amount of BrdU incorporated into the DNA which in turn represents proliferation. The results are expressed as percentage BrdU incorporation.
# [13] = tested on: caspase-3; details: 1, 10 and 20 μg/ml, 24 hours
# Experimental: as §2
# [14] = tested on: Akt; details: SMS-KCNR
# Experimental: as §2
# [15] = tested on: SMS-KCNR cells; details: 0-20 μg/ml, after 72 hours of treatment
# [16] = tested on: SMS-KCNR cells; details: 96 hours
# Experimental: Vehicle treated cells were used as control.
# Vehicle treated cells were used as control. […] The cells were washed with PBS, fixed with paraformaldehyde, permeabilized with Triton X-100 at room temperature, labeled with fluorescein-12-dUTP using terminal deoxynucleotidyl transferase and counterstained with propidium iodide (5 μg/ml). Negative controls (without terminal transferase) were included in each experiment. Apoptosis was detected by fluorescence microscopy (Nikon Eclipse TE2000-E fitted with a cooled CCD camera, Japan). Propidium iodide staining was used to detect both non-apoptotic and apoptotic cells and fluorescein staining was used to detect the apoptotic cells.
# [17] = tested on: SMS-KCN cells; assay: cells; details: Homo sapiens
# Experimental: as §1, §2, §3
# [18] = tested on: IMR-32 cells; assay: cells; details: Homo sapiens
# Experimental: as §1, §2, §3
# [19] = 120 h, read-out: cell viability
# [20] = read-out: IC50, concentration required to reach 50% inhibition of growth
compound,measurement,setting,value
CC1CS(=O)(=O)CCN1/N=C/c1ccc([N+](=O)[O-])o1 (stereo not drawn) [Nifurtimox],micro-vascular sprouting of aortic rings,[1]; 20 μg/ml,complete inhibition of micro-vascular sprouting
same,capillary network of aortic rings,[1]; 1 and 10 μg/ml,sparse and incomplete
same,decrease in tumor size versus untreated,[2],greater than three fold decrease
same,tumor size,[2],0.3 grams
same,inhibition at 20 µg/mL,[3],50%
same,sensitivity of sympathetic neurons to nifurtimox,[4],enhanced sensitivity
same,cytotoxicity at 10 µg/mL,"[5]; 96 h, read-out: decrease of cell viability compared to vehicle treated control",50%
same,viability at 20 µg/mL,[5]; [19],37%
same,IC50,[5]; [20],14.7 µg/mL
same,viability at 10 µg/mL,[5]; read-out: cell viability with Z-VAD-FMK pretreatment,90%
same,phosphorylation of ERK1/2,[6],not affected
same,tumor response,"[7]; Patient A, after four months, with cyclophosphamide and topotecan",significant and continuous tumor regression
same,tumor response,"[7]; Patient A, after two weeks, Nifurtimox alone",tumor stabilization
same,tumor markers,"[7]; Patient B, after two months, with ascorbic acid, cyclophosphamide and topotecan",normalization of tumor markers
same,tumor marker VMA,"[7]; Patient C, Day 21, before ascorbic acid",17
same,bone marrow tumor status,"[7]; Patient C, Day 21, initially positive for tumor",negative
same,tumor marker VMA,"[7]; Patient C, after 3 cycles of treatment",13
same,tumor response,"[7]; patient with Chagas disease, 15-20 mg/kg/day oral, with cyclophosphamide and topotecan",tumor subsequently regressed
same,tumor response after relapse,"[7]; same patient restarted on nifurtimox, cyclophosphamide and topotecan",again demonstrated tumor regression
same,tumor response,"[7]; three patients with relapsed neuroblastoma, 20 mg/kg/day, alone or in combination",tumor regression
same,tolerability in children versus adults,[8],much better tolerated in children
same,cytotoxicity after pretreatment with AMPT (tyrosine hydroxylase inhibitor),[9],reduction of cytotoxicity
same,cytotoxic effects on normal epithelial cells,[10],not observed
same,IC50,[11],18.1 µg/mL
same,inhibition at 5 µg/mL,[12],30%
same,inhibition at 10 µg/mL,[12],50%
same,inhibition at 20 µg/mL,[12],> 80%
same,activation of caspase-3 (19 and 17 kDa bands),[13],dose dependent and strong activation
same,serum stimulated Akt phosphorylation,"[14]; 1.0 and 10 μg/ml, in the presence of serum",completely inhibited
same,BDNF stimulated Akt phosphorylation,"[14]; 10 and 20 μg/ml, BDNF stimulation",significantly inhibited
same,total Akt protein levels,[14]; BDNF stimulation,not altered
same,apoptosis (TUNEL positive nuclei),[15],dose dependent increase in apoptosis
same,morphological alterations,[16]; 1 μg/ml,decrease in axon length was apparent
same,morphological alterations,[16]; 10 μg/ml,the decrease in axon length was more prominent and was associated with rounding of cells
same,morphological alterations,[16]; 20 μg/ml,rounded up and floating
same,viability at 20 µg/mL,[17]; [19],59%
same,IC50,[17]; [20],25.4 µg/mL
same,viability at 20 µg/mL,"[18]; IMR-32, 120 h, read-out: cell viability",78%
same,IC50,"[18]; IMR-32, read-out: IC50, concentration required to reach 50% inhibition of growth",52.9 µg/mL
